Measurements: PubChem BioAssay (NCI)
Values joined by “and” are separate entries in the source; they are usually repeats but may differ in a detail not shown here. Equal values may be shown once.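 Following 48 hours of exposure in 96-well plates, responses at five concentrations were used to interpolate endpoints linearly. GI50 = concentration required for 50% inhibition of growth. Definition used: TGI = concentration required for complete inhibition of growth.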

Columns and labels:
Experiment in all cases: NCI anticancer screen, dose series, 48 h
[1] = system: HCC-2998 colon
[2] = system: MALME-3M melanoma
[3] = system: SF-295 CNS
[4] = system: LOX IMVI melanoma
[5] = system: A498 renal
[6] = system: NCI-H460 lung
[7] = system: M14 melanoma
[8] = system: SNB-75 CNS
[9] = system: NCI-H522 lung
[10] = system: HS 578T breast

Nc1ncnc2c1ncn2COC/C=C/I
TGI [1]: > 100 µM
TGI [2]: > 100 µM
TGI [3]: > 100 µM
TGI [4]: > 100 µM
TGI [5]: > 100 µM
TGI [6]: > 100 µM
TGI [7]: > 100 µM
TGI [8]: > 100 µM
TGI [9]: > 100 µM

NC(=S)N=Nc1c(O)[nH]c2ccccc12
GI50 [2]: 310 µM
TGI [2]: 753 µM
GI50 [3]: 197 µM
TGI [3]: 498 µM
GI50 [4]: 226 µM
TGI [4]: > 1000 µM
GI50 [5]: 30.1 µM and 206 µM
TGI [5]: 94.9 µM and 503 µM
GI50 [6]: 185 µM
TGI [6]: > 1000 µM
GI50 [10]: 195 µM
TGI [10]: 691 µM
GI50 [8]: 91.7 µM and 174 µM
TGI [8]: 419 µM
GI50 [9]: 159 µM
TGI [9]: 343 µM

CCOc1cc[n+](C(=C=[N-])C#N)cc1
TGI [1]: > 100 µM
TGI [2]: > 100 µM
TGI [3]: > 100 µM
TGI [4]: > 100 µM
TGI [5]: > 100 µM
TGI [6]: > 100 µM
TGI [7]: > 100 µM
TGI [8]: > 100 µM
TGI [9]: > 100 µM

N#CCCn1c(CCC(=O)Nc2ccc(Cl)cc2Cl)n[nH]c1=S
TGI [1]: > 100 µM
TGI [2]: > 100 µM
TGI [3]: > 100 µM
TGI [4]: > 100 µM
TGI [5]: > 100 µM
TGI [6]: > 100 µM
TGI [7]: > 100 µM
TGI [8]: > 100 µM
TGI [9]: > 100 µM

Cc1ccc(SSCCCCS(=O)O)cc1
TGI [1]: 66.3 µM
TGI [2]: 69.7 µM
TGI [3]: 96.4 µM
TGI [4]: 76.1 µM
TGI [5]: 54.6 µM
TGI [6]: > 100 µM
TGI [7]: 32.6 µM
TGI [8]: > 100 µM
TGI [9]: 27.6 µM

Cc1ccccc1NC(=O)CC(=O)n1nc(-c2ccccc2)c(N=Nc2ccc([N+](=O)[O-])cc2)c1-c1ccccc1
TGI [1]: 51.3 µM
TGI [2]: 75.9 µM
TGI [3]: 49.6 µM
TGI [4]: 46.6 µM
TGI [6]: > 100 µM
TGI [7]: 33.3 µM
TGI [8]: > 100 µM
TGI [9]: 45.5 µM

N#CC1C(=O)NC(=O)C(C#N)C1c1ccc(Cl)c(Cl)c1 (centres undefined)
TGI [2]: > 100 µM
TGI [3]: > 100 µM
TGI [4]: 34.4 µM
TGI [6]: > 100 µM
TGI [10]: 65.6 µM
TGI [7]: 56 µM
TGI [8]: 74.2 µM
TGI [9]: 38 µM

CCOc1ccccc1NC(=O)C(=O)c1c(O)c2ccc(O)cc2oc1=O
TGI [1]: > 100 µM
TGI [2]: > 100 µM
TGI [3]: > 100 µM
TGI [4]: > 100 µM
TGI [5]: > 100 µM
TGI [6]: > 100 µM
TGI [7]: > 100 µM
TGI [8]: > 100 µM
TGI [9]: > 100 µM

CCCCCC/C(CC(=O)CCC(=O)NCCc1ccccc1)=N\NC(=O)c1ccc2ccccc2c1O
TGI [1]: > 100 µM
TGI [2]: > 100 µM
TGI [3]: > 100 µM
TGI [4]: 48.5 µM
TGI [6]: > 100 µM
TGI [7]: > 100 µM
TGI [8]: > 100 µM

C#Cc1ccccc1N1C(=O)C=CC1=O
TGI [2]: > 100 µM
TGI [3]: > 100 µM
TGI [5]: > 100 µM
TGI [6]: > 100 µM
TGI [7]: > 100 µM
TGI [8]: > 100 µM
TGI [9]: > 100 µM

CC(=O)N1CCN(C=S)CC1
TGI [1]: > 100 µM
TGI [2]: > 100 µM
TGI [3]: > 100 µM
TGI [4]: > 100 µM
TGI [5]: > 100 µM
TGI [6]: > 100 µM
TGI [7]: > 100 µM
TGI [8]: > 100 µM
TGI [9]: > 100 µM

ClCCCN1CCCCC1CCl (centres undefined)
TGI [1]: > 100 µM
TGI [2]: > 100 µM
TGI [3]: > 100 µM
TGI [4]: > 100 µM
TGI [5]: > 100 µM
TGI [6]: > 100 µM
TGI [7]: > 100 µM
TGI [8]: > 100 µM
TGI [9]: > 100 µM

CN(C)c1ccc(/C=c2\sc3nnc(Cc4ccccc4)n3c2=O)cc1
TGI [1]: > 100 µM
GI50 [2]: > 100 µM
TGI [2]: > 100 µM
GI50 [3]: > 100 µM
TGI [3]: > 100 µM
TGI [4]: > 10 µM
GI50 [5]: > 100 µM
TGI [5]: > 100 µM
GI50 [6]: > 100 µM
TGI [6]: > 100 µM
GI50 [7]: > 100 µM
TGI [7]: > 100 µM
GI50 [8]: > 100 µM
TGI [8]: > 100 µM
GI50 [9]: > 100 µM
TGI [9]: > 100 µM

N#CC1([N+](=O)[O-])C=C1c1ccccc1 (centres undefined)
TGI [2]: > 100 µM
TGI [3]: > 100 µM
TGI [4]: > 100 µM
TGI [6]: > 100 µM
TGI [7]: > 100 µM
TGI [9]: 56.6 µM

C[C@H](c1ccc(Cl)cc1[N+](=O)[O-])N1C(=O)c2cc(I)ccc2NC(=O)[C@H]1c1ccc(Cl)cc1
GI50 [2]: > 100 µM
TGI [2]: > 100 µM
GI50 [3]: 8.18 µM
TGI [3]: > 100 µM
GI50 [4]: > 100 µM
TGI [4]: > 100 µM
GI50 [5]: > 100 µM
TGI [5]: > 100 µM
GI50 [6]: 6.61 µM
TGI [6]: > 100 µM
GI50 [10]: 6.5 µM
TGI [10]: > 100 µM
GI50 [7]: 85.4 µM
TGI [7]: > 100 µM
GI50 [8]: > 100 µM
TGI [8]: > 100 µM
GI50 [9]: 8.94 µM
TGI [9]: > 100 µM

CN/N=C(/CC(=O)c1sc(NNC(C)=O)nc1C)C(=O)Nc1ccc(OC)cc1OC
TGI [1]: > 100 µM
TGI [2]: > 100 µM
TGI [3]: > 100 µM
TGI [4]: > 100 µM
TGI [5]: > 100 µM
TGI [6]: > 100 µM
TGI [7]: > 100 µM
TGI [9]: > 100 µM

Nc1ncnc2c1ncn2C1OC(C(=O)OCCO)C(O)C1O (centres undefined)
TGI [2]: > 100 µM
TGI [3]: > 100 µM
TGI [4]: > 100 µM
TGI [5]: > 100 µM
TGI [6]: > 100 µM
TGI [10]: > 100 µM
TGI [7]: > 100 µM
TGI [8]: > 100 µM
TGI [9]: > 100 µM

OCC(O)C(OC1OC(CO)C(O)C(O)C1O)c1nn(-c2ccc(Cl)cc2)c2nc3cc(Cl)ccc3nc12 (centres undefined)
TGI [1]: > 100 µM
TGI [2]: > 100 µM
TGI [3]: > 100 µM
TGI [4]: > 100 µM
TGI [5]: > 100 µM
TGI [6]: > 100 µM
TGI [7]: > 100 µM
TGI [8]: > 100 µM
TGI [9]: > 100 µM

CCOC(=O)C1C(=O)c2cccc(OC)c2C2COC(=O)N12 (centres undefined)
TGI [1]: > 100 µM
TGI [2]: > 100 µM
TGI [3]: > 100 µM
TGI [4]: > 100 µM
TGI [6]: > 100 µM
TGI [7]: > 100 µM
TGI [8]: > 100 µM
TGI [9]: > 100 µM

C[C@H](CCCOS(C)(=O)=O)[C@H]1CC[C@H]2[C@@H]3CC[C@@H]4C[C@H](OS(C)(=O)=O)CC[C@]4(C)[C@H]3CC[C@]12C
GI50 [2]: 994 µM
GI50 [3]: 532 µM
TGI [3]: 1340 µM
GI50 [4]: 483 µM
TGI [4]: 1270 µM
GI50 [5]: 664 µM
GI50 [6]: 597 µM
TGI [6]: 2080 µM
GI50 [10]: 423 µM
GI50 [7]: 706 µM
TGI [7]: > 2500 µM
GI50 [9]: 398 µM
TGI [9]: 961 µM

N#CC12CC3(CCC1CCC1(C2)OCCO1)OCCO3 (centres undefined)
TGI [1]: > 100 µM
TGI [2]: > 100 µM
TGI [3]: > 100 µM
TGI [4]: > 100 µM
TGI [5]: > 100 µM
TGI [6]: > 100 µM
TGI [7]: > 100 µM
TGI [8]: > 100 µM
TGI [9]: > 100 µM

CC(=O)Nc1ccccc1S(=O)c1ccccc1 (centres undefined)
TGI [1]: > 100 µM
TGI [2]: > 100 µM
TGI [3]: > 100 µM
TGI [4]: > 100 µM
TGI [5]: > 100 µM
TGI [6]: > 100 µM
TGI [7]: > 100 µM
TGI [8]: > 100 µM
TGI [9]: > 100 µM
